Experimental data: US20260000698A1 (priority 2022, published 2026)
pEC50, pIC50: −log10 of the molar value. Read-outs that look alike come from different tables or passages of the source.

How the values were obtained:
[1] = tested on: A549/ACE2/TMPRSS2 cells; experiment: in vitro; details: for CC50: A549/ACE2/TMPRSS2 cells
Method: (§1) Percentage of infected cells was determined by dividing the number of infected cells by the total number of cells per well. The percentage of infected cells and total number of cells for each treatment was plotted into GraphPad prism (GraphPad Software; San Diego, CA, USA) to perform a non-linear regression analysis, generate infectious dose-response curves and to calculate EC50 and CC50 values.
(§2) Viability assays for the non-infected A549/ACE2/TMPRSS2 cells were performed using the 3-(4,5-dimethylthiazol-2-yl)-5-(3-carboxymethoxyphenyl)-2-(4-sulfophenyl)-2H-tetrazolium (MTS)-based tetrazolium reduction CellTiter 96 Aqueous Non-Radioactive cell proliferation assay (Promega G5430; Madison, WI) as described. Assays were conducted using parallel plates to those used in the immunofluorescence assay. Experimental details (cell line, number of cells seeded and incubation time) corresponded to those used in the immunofluorescence assay above. The data obtained were used to calculate the CC50 value using GraphPad Prism software.

[2] = tested on: SARS-CoV-2 isolate USA-WA1/2020
[3] = target: SARS-CoV-2 Nsp14 MTase (Severe acute respiratory syndrome coronavirus 2, UniProt P0DTD1); experiment: biochemical; assay type: biochemical
[4] = tested on: SARS-CoV-2 isolate USA-WA1/2020; experiment: microbe, parasite or virus in culture; details: for pEC50: Severe acute respiratory syndrome coronavirus 2, A549-ACE2, 48 h; for inhibition at 10 µM: Severe acute respiratory syndrome coronavirus 2, A549-ACE2, read-out: % inhibition at 10 μM (EC50)
[5] = in vitro; details: human
Method: as §1, §2

[6] = LC-MS/MS detection of SAH, read-out: MTase IC50

In the case of CC(=O)Nc1ncnc2c1ncn2[C@@H]1O[C@H](CNS(=O)(=O)c2ccc3ccccc3c2)[C@@H](O)[C@H]1O [Compound 6, N-(9-((2R,3R,4S,5R)-3,4-Dihydroxy-5-((naphthalene-2-sulfonamido)methyl)tetrahydrofuran-2-yl)-9H-purin-6-yl)acetamide], the CC50 [1] was greater than 100 µM, the “EC50: NA (not active)” value ([2]; inhibition at 50 μM) was “NA^a (NA, not active, <15% inhibition at 50 μM.)” and the pIC50 ([3]; LC-MS/MS assay, read-out: IC50) was 7.32.
In the case of CC(=O)O[C@@H]1[C@H](OC(C)=O)[C@@H](CNS(=O)(=O)c2ccc3ccccc3c2)O[C@H]1c1ccc2c(N)ncnn12 [Compound 11, (2S,3S,4R,5R)-2-(4-Aminopyrrolo[2,1-f][1,2,4]triazin-7-yl)-5-((naphthalene-2-sulfonamido)methyl)tetrahydrofuran-3,4-diyl diacetate], the CC50 [1] was 63 µM, the “cytotoxicity” value ([1]; human, 100 μM) was “more toxic than 10” and the “antiviral activity” value ([2]; A549 AT cells) was “less active”. The pEC50 [4] was 5.37.
With Nc1ncnn2c([C@@H]3O[C@H](CNS(=O)(=O)c4cccc5ccccc45)[C@@H](O)[C@H]3O)ccc12 [Compound 12, N-(((2R,3S,4R,5S)-5-(4-Aminopyrrolo[2,1-f][1,2,4]triazin-7-yl)-3,4-dihydroxytetrahydrofuran-2-yl)methyl)naphthalene-1-sulfonamide] the CC50 [5] was greater than 100 µM, the pEC50 [4] was 5.52 and the pIC50 [3, 6] was 5.14.
For Nc1ncnn2c([C@@H]3O[C@H](CNS(=O)(=O)c4cc5ccccc5s4)[C@@H](O)[C@H]3O)ccc12 [Compound 13, N-(((2R,3S,4R,5S)-5-(4-aminopyrrolo[2,1-f][1,2,4]triazin-7-yl)-3,4-dihydroxytetrahydrofuran-2-yl)methyl)benzo[b]thiophene-2-sulfonamide], the CC50 [5] was greater than 100 µM, the pEC50 [4] was 5.80 and the pIC50 [3] was 7.38.
With Nc1ncnn2c([C@@H]3O[C@H](CNS(=O)(=O)c4csc5ccccc45)[C@@H](O)[C@H]3O)ccc12 [Compound 14, N-(((2R,3S,4R,5S)-5-(4-Aminopyrrolo[2,1-f][1,2,4]triazin-7-yl)-3,4-dihydroxytetrahydrofuran-2-yl)methyl)benzo[b]thiophene-3-sulfonamide] the CC50 [5] was greater than 100 µM, the pEC50 [4] was 4.89 and the pIC50 [3, 6] was 5.70.
In the case of Nc1ncnn2c([C@@H]3O[C@H](CNS(=O)(=O)c4ccc5ccccc5c4)[C@@H](O)[C@H]3O)cc(I)c12 [Compound 49, N-(((2R,3S,4R,5S)-5-(4-Amino-5-iodopyrrolo[2,1-f][1,2,4]triazin-7-yl)-3,4-dihydroxytetrahydrofuran-2-yl)methyl)naphthalene-2-sulfonamide], the CC50 [5] was 28 µM, the pEC50 [4] was 4.96 and the pIC50 [3, 6] was 7.34.
For Nc1ncnc2c1ncn2[C@@H]1C[C@H](CNS(=O)(=O)c2ccc3ccccc3c2)[C@@H](O)[C@H]1O [Compound A1, N-(((1R,2R,3S,4R)-4-(6-Amino-9H-purin-9-yl)-2,3-dihydroxycyclopentyl)methyl)naphthalene-2-sulfonamide], the CC50 [5] was greater than 100 µM, the inhibition at 10 µM [4] was 33% and the pIC50 [3] was 6.11.
CCN(C[C@H]1C[C@@H](n2cnc3c(N)ncnc32)[C@H](O)[C@@H]1O)S(=O)(=O)c1ccc2ccccc2c1 [Compound A2, N-(((1R,2R,3S,4R)-4-(6-Amino-9H-purin-9-yl)-2,3-dihydroxycyclopentyl)methyl)-N-ethylnaphthalene-2-sulfonamide] gave a CC50 [5] greater than 100 µM, an inhibition at 10 µM [4] of 29% and a pIC50 [3, 6] of 6.59.
In the case of Nc1ncnc2c1ncn2[C@@H]1C[C@H](CNS(=O)(=O)c2ccc3ccccc3c2)[C@H](O)[C@@H]1O [Compound A3, N-(((1R,2S,3R,4R)-4-(6-Amino-9H-purin-9-yl)-2,3-dihydroxycyclopentyl)methyl)naphthalene-2-sulfonamide], the CC50 [5] was greater than 100 µM, the inhibition at 10 µM [4] was 41% and the pIC50 [3] was 3.99.
In the case of CCN(C[C@H]1C[C@@H](n2cnc3c(N)ncnc32)[C@@H](O)[C@H]1O)S(=O)(=O)c1ccc2ccccc2c1 [Compound A4, N-(((1R,2S,3R,4R)-4-(6-Amino-9H-purin-9-yl)-2,3-dihydroxycyclopentyl)methyl)-N-ethylnaphthalene-2-sulfonamide], the CC50 [5] was greater than 100 µM, the inhibition at 10 µM [4] was 34% and the pIC50 [3, 6] was 5.29.
